Results: patent US12173089B2, “Inhibition of pulmonary fibrosis with nutlin-3A and peptides” (BOARD OF REGENTS, THE UNIVERSITY OF TEXAS SYSTEM, priority 2013, dated 2024)

How the values were obtained:
[1] = system: fibroblasts isolated from the lungs of mice; experiment: Western blotting and quantitative RT-PCR of fibroblasts isolated from lungs of treated BLM mice; assay type: in vivo; conditions: fibroblasts from BLM mice treated with nutlin-3a
Protocol: FIGS. 12A-12C. CSP-4 or nutlin-3a (NTL) inhibits proliferation of FL-fibroblasts. Mice were exposed to BLM for 14 d to induce significant lung fibrosis or to saline (fibrosis controls). 14 d later, mice exposed to BLM were treated with CSP-4 or CP, or nutlin-3a (see FIGS. 10A-10D/11A-11D). (FIG. 12A): Lung sections (d 21 after BLM injury) were subjected to immunohistochemistry (IHC) for Ki-67 to assess proliferation. One representative example is shown (n=9). Fibroblasts were isolated from the lungs of mice exposed to saline, BLM or BLM+nutlin-3a (as described in FIG. 11A) were tested for the changes in expression of col-I, p53 and downstream uPA and PAI-1 proteins by Western blotting (FIG. 12B):, and mRNA by quantitative RT-PCR (FIG. 12C).
Mice exposed to BLM 14 days earlier were treated with CSP-4 or its control (CP) or Nutlin-3a IV (as in Examples IX and X). Seven days later lung sections were obtained and subjected to IHC for Ki-67 to assess cell proliferation (see FIG. 12A). […] Fibroblasts isolated from the lungs of these animals (as described in Example X) were tested for the changes in expression of col-I, p53 and downstream uPA and PAI-1 proteins by Western blotting, and mRNA by quantitative RT-PCR (see FIGS. 12B-12C).

FL(IPF)-fibroblasts = experiment: Immunoblot of FL-fibroblast lysates for Col-I, PAI-1, p53 and uPA after exposure to nutlin-3a or CSP-4; assay type: cell-based, human; conditions: nutlin-3a 10 μM, CSP-4 10 nM, 48 hrs
Protocol: (§1) FIGS. 8A-8C. Role of p53-fibrinolytic system cross-talk in nutlin-3a (NTL) or CSP-4-mediated inhibition of col-I expression in FL(IPF)-fibroblasts. (FIG. 8A) FL-fibroblasts were exposed to PBS, nutlin-3a (10 uM), CSP-4 (10 nM) or control peptide (CP) for 48 h. The cell lysates were immunoblotted for the expression of Col-I, PAI-1, p53, uPA and β-actin. (FIG. 8B) FL-fibroblasts cultured in 12 well plates in DMEM media were exposed to vehicle (PBS) or nutlin-3a, CSP-4 or CP. After 3 d, cells were detached and counted. (FIG. 8C) FL-fibroblasts were transduced with empty adenovirus vector alone (Ad-EV) or Ad-vector expressing p53 (Ad-p53), PAI-1 (Ad-PAI-1) or caveolin-1 (Ad-Cav-1). After 48 h, cell lysates were immunoblotted for Col-I, p53, PAI-1, uPA and β-actin.
(§2) FL-fibroblasts were exposed to PBS (control), nutlin-3a (10 μM), CSP-4 (10 nM) or CP for 48 hrs. Lysates were immunoblotted for the expression of Col-I, PAI-1, p53, and uPA. Cultured FL- were exposed to vehicle (PBS) or nutlin-3a, CSP-4 or CP and counted to assess proliferation. […] The process involves induction of p53 and PAI-1 expression, and concurrent inhibition of uPA.

[2] = system: LPS-stimulated neutrophils and macrophages; conditions: cited from earlier work
FL-fibroblasts [3] = experiment: Proliferation of cultured FL-fibroblasts (cell count); assay type: cell-based, human; conditions: cells counted after 3 d
Protocol: as §1, §2

[4] = system: fibrotic lung tissue explants; experiment: Ex vivo treatment of fibrotic lung tissue explants of BLM mice, col-I and α-SMA by Western blotting; assay type: cell-based; conditions: CSP-4 10 nM, nutlin-3a 10 μM, 72 h
Protocol: FIG. 13. Inhibition of BLM-induced pulmonary fibrosis by ex vivo treatment of WT mice lung tissues with CSP-4 or nutlin-3a (NTL). Mice were exposed to intranasal BLM for 21 d to induce pulmonary fibrosis. These mice (n=3) were sacrificed, lungs were excised, chopped into small pieces and placed in culture dishes with DMEM medium containing 10% fetal bovine serum. The tissue samples were later treated with CSP-4 (10 nM), control peptide (CP) and nutlin-3a (TL) (10 μM) for 72 h. Conditioned medium and tissue lysates were prepared and analyzed for changes in col-I, a-SMA and β-actin by Western blotting.
Mice were exposed to intranasal BLM for 21 d to induce pulmonary fibrosis, sacrificed, and their lungs excised and chopped into small pieces and placed into culture medium. These tissue samples were thereafter treated with 10 nM CSP-4 peptide, control peptide (CP) or nutlin-3a for 72 h. Conditioned medium and tissue lysates were and analyzed for changes in col-I and α-SMA by Western blotting. […] The present inventors' results provided herein and in recent reports (e.g., Bhandary et al, 2012, 2013, supra), strongly support the conception that p53-mediated downstream changes in uPA and PAI-1 regulates viability of FL-fibroblasts.

LPS-induced ALI = conditions: mice; cited from earlier work
FL-fibroblasts [5] = experiment: Deletional analysis of CSP: peptide fragments tested on FL-fibroblasts for changes in p53, uPA, PAI-1 and col-I; assay type: cell-based, human
Protocol: FIGS. 6A-6D. CSP (CSP4) augments p53 expression via induction of miR-34a in FL(IPF)-fibroblasts. (FIG. 6A) NL- and FL-fibroblasts (n=3) were treated with PBS, CSP-4 (CSP) or control peptide (CP). RNA was analyzed for miR-34a by real-time PCR. (FIG. 6B) FL-fibroblasts were treated with PBS or CSP or CP with or without miR-34a antisense (miR-34a-AS) or pre-miR-34a or control miRNA (Ctr-miR). Conditioned media (CM) were immunoblotted for PAI-1 and lysates (CL) for p53 and β-actin. (FIG. 6C) FL-fibroblasts were treated with PBS or CSP or CP in the presence or absence of miR-34a-AS, pre-miR-34a or Ctr-miR. RNA was analyzed for changes in miR-34a by real-time PCR. (FIG. 6D) A series of overlapping deletions were made in CSP and these peptides were used to treat FL-fibroblasts with. The peptide sequences were CSP (SEQ ID NO:2), CSP-2: DGIWKAS (SEQ ID NO:12), CSP-3: KYWFYR (SEQ ID NO:13), CSP-4 (SEQ ID NO:1), and CP (SEQ ID NO:5). Changes in p53, uPA, PAI-1 and col-I were later assessed to identify the minimum amino acids required for the CSP effects.
A series of overlapping deletions were made in CSP and these peptide fragments were tested on FL-fibroblasts for changes in p53, uPA, PAI-1 and col-I (FIG. 6D).

ATII cell = conditions: BLM- or cigarette smoke-induced; cited from earlier work

COc1ccc(C2=NC(c3ccc(Cl)cc3)C(c3ccc(Cl)cc3)N2C(=O)N2CCNC(=O)C2)c(OC(C)C)c1 (stereo not shown) [nutlin-3a, 4-2-4,5-dihydro-1H-imidazole-1-piperazin-2-one]
PAI-1 protein and mRNA expression [1]: marked induction
col-I protein and mRNA expression [1]: significant suppressed
p53 protein [1]: marked induction
uPA protein and mRNA expression [1]: significant suppressed
PAI-1 expression (FL(IPF)-fibroblasts): induction
col-I expression (FL(IPF)-fibroblasts): inhibited
p53 expression (FL(IPF)-fibroblasts): induction
uPA expression (FL(IPF)-fibroblasts): inhibition
NF-κB DNA-binding activity [2]: attenuated
production of proinflammatory cytokines [2]: attenuated
proliferation of FL-fibroblasts (FL-fibroblasts [3]): inhibited
fibrosis ex vivo (changes in col-I and α-SMA) [4]: inhibited
severity of LPS-induced ALI (LPS-induced ALI): reduced

FTTFTVT [CSP-4]
PAI-1 expression (FL(IPF)-fibroblasts): induction
col-I expression (FL(IPF)-fibroblasts): inhibited
p53 expression (FL(IPF)-fibroblasts): induction
uPA expression (FL(IPF)-fibroblasts): inhibition
activity in deletional analysis of the CSP 20mer (changes in p53, uPA, PAI-1 and col-I) (FL-fibroblasts [5]): had the activity of the full length peptide
proliferation of FL-fibroblasts (FL-fibroblasts [3]): inhibited
fibrosis ex vivo (changes in col-I and α-SMA) [4]: inhibited
ATII cell apoptosis (ATII cell): inhibited
ATII cell p53 expression (ATII cell): inhibited
